# Assay results published in patent US20260184700A1, “PDK1 REGULATORY COMPOUND AND COMPOSITION CONTAINING THE SAME” (PROVIBIO CO., LTD., priority 2024, published 2026).
# Legend:
# [1] = tested on: Human B Lymphocyte cell line, SU-DHL-8; assay: Relative cell viability, CCK-8, SU-DHL-8; assay type: cell-based; conditions: 48 hours
# Experimental: Human-derived B lymphoma cell line SU-DHL-8 (Cat. #CRL-2961) purchased from ATCC was cultured in RPMI-1640 medium containing 10% FBS, 100 U/mL penicillin, and 100 μg/mL streptomycin.
# The cell culture medium was then harvested, centrifuged at 1,300 rpm for 5 minutes, and the supernatant was removed. The cells were resuspended in the same medium and dispensed into a 96-well plate (Costar 96-well cell culture plate, Corning) at 90 μL per well, resulting in the conditions specified in Table 5.
# Then, 10 μL of CCK-8 was added to each well, and the plates were incubated again at 37° C. in a 5% CO2 incubator for 4 hours.
# In other words, when the survival rate of untreated cells (DMSO) is set at 100%, the relative cell survival rate in each group treated with the drug at different concentrations is indicated.
# [2] = tested on: T cells isolated from mouse spleen; assay: T cell proliferation inhibition, CFSE flow cytometry, CD3/CD28 activation; assay type: cell-based; conditions: CD3/CD28 activated, 3 days
# Experimental: To verify the T cell proliferation inhibitory effect of the compounds according to the present invention, the following experiment was performed based on flow cytometry analysis using carboxyfluorescein diacetate succinimidyl ester (CFSE), a fluorescent dye that binds to intracellular molecules via covalent bonds.
# Spleens were extracted from 7-week-old C57BL/6 mice, ground, and then separated into single cells using a strainer (40 μm pore size, SPL). Red blood cells were removed using ACK (Ammonium-Chloride-Potassium) lysis buffer to isolate white blood cells.
# Finally, using a MACS Magnetic Stand and LS column, T cells were isolated from the spleen.
# The T cells isolated from the spleen were resuspended in 1 mL of free medium (RPMI-1640+200 U/mL penicillin+200 μg/mL streptomycin), and 0.3 μL of CFSE (10 mM) was added. The mixture was incubated at 37° C. for 5 minutes.
# Free medium (10 mL) was added to stop the reaction, and the cells were centrifuged to obtain the cell pellet.
# RPMI 1640 medium containing 10% FBS, 100 U/mL penicillin, 100 μg/mL streptomycin, and resuspended the cells. The cells were then seeded into a 96-well plate at a density of 2×10^5 cells per well and activated with CD3 and CD28 antibodies (0.5 μg/mL each) to activate T cells.
# The compound diluted in DMSO was added at concentrations of 10 nM, 100 nM, 1 μM, 10 μM, 30 μM, and 50 μM, with three wells per concentration, and cultured at 37° C. and 5% CO2 for three days. The cells were then analyzed using a FACS Canto instrument.
# The proliferation inhibition rate (%) was calculated using the following formula: […]
Compound,"Relative cell viability (%) ([1]; SU-DHL-8, 30 μM)",Proliferation inhibition rate (%) ([2]; compound 100 nM),Proliferation inhibition rate (%) ([2]; compound 1 μM),Proliferation inhibition rate (%) ([2]; compound 10 μM),Proliferation inhibition rate (%) ([2]; compound 30 μM),Proliferation inhibition rate (%) ([2]; compound 50 μM),"Relative cell viability (%) ([1]; SU-DHL-8, 50 μM)","Relative cell viability (%) ([1]; SU-DHL-8, 1 μM)","Relative cell viability (%) ([1]; SU-DHL-8, 10 μM)"
"CC1CN(CCCCCCCCCCCCNC(=O)c2cccnc2N)CC(C)O1 (centres unmarked) [Compound 21, 2-Amino-N-(12-(2,6-dimethylmorpholino)dodecyl) nicotinamide]",3.70,100.00,100.00,100.00,100.00,100.00,,,
"CC1CCN(CCCCCCCCCCCCNC(=O)c2cccnc2N)C1 (centres unmarked) [Compound 24, 2-Amino-N-(12-(3-methylpyrrolidin-1-yl)dodecyl) nicotinamide]",0.62,100.00,100.00,100.00,100.00,100.00,,,
"Nc1ncccc1C(=O)NCCCCCCCCCCCCN1CCS(=O)(=O)CC1 [Compound 25, 2-Amino-N-(12-(1,1-dioxidothiomorpholino)dodecyl) nicotinamide]",0.11,,100.00,100.00,100.00,100.00,0.95,,
"Nc1ncccc1C(=O)NCCCCCCCCCCCCN1CCC(F)C1 (centres unmarked) [Compound 26, 2-Amino-N-(12-(3-fluoropyrrolidin-1-yl)dodecyl) nicotinamide]",0.05,100.00,100.00,100.00,100.00,100.00,,1.70,
"CC1CNCCN1CCCCCCCCCCCCNC(=O)c1cccnc1N (centres unmarked) [Compound 35, 2-Amino-N-(12-(2-methylpiperazin-1-yl)dodecyl) nicotinamide]",0.42,100.00,100.00,100.00,100.00,100.00,,,0.64
"Nc1ncccc1C(=O)NCCCCCCCCCCCCN1CCC(Oc2ccncc2)CC1 [Compound 38, 2-Amino-N-(12-(4-(pyridin-4-yloxy)piperidin-1-yl)dodecyl) nicotinamide]",,100.00,100.00,100.00,100.00,100.00,,,3.30
"Cl.Nc1ncccc1C(=O)NCCCCCCCCCCCCN1CC[C@H](N)C1 [Compound 50, (S)-2-Amino-N-(12-(3-aminopyrrolidin-1-yl)dodecyl) nicotinamide Hydrochloride]",,100.00,100.00,100.00,100.00,100.00,,9.20,
